Assay results from US12624067B2, “Cyclic peptide, cell scaffold material, cell separating material, and medium” (FUJIFILM Corporation, priority 2019, dated 2026).
Numbered stars: 1 amine (or outer) side, 2 acyl side, 3 side chain; on linkers, the order of the positions; unused ones are H or OH. Bridge positions count the residues as written; N and C are the ends. Square brackets hold non-standard residues; d marks the D form. Peptide text beside a SMILES is read from it. hCys = N[C@@H](CCS)C(=O)O; Orn = NCCC[C@H](N)C(=O)O; Dab = NCC[C@H](N)C(=O)O; Dap = NC[C@H](N)C(=O)O; X1 = O=C(C[*:1])[*:2]; X2 = O=C(C[*:2])[*:1]

Legend:
[1] = biological target: human integrin αvβ5 (Homo sapiens, UniProt P06756+P18084); assay: Evaluation of integrin binding property (surface plasmon resonance, Biacore 3000, immobilized cyclic peptide); conditions: peptide immobilized on CM5 sensor chip; human integrin αvβ5 30-1,000 nM, 25° C., HEPES buffer with 5 mM magnesium chloride; read-out: Integrin binding property (dissociation constant)
human integrin αvβ5, sequence (P06756 31-889 limits assumed): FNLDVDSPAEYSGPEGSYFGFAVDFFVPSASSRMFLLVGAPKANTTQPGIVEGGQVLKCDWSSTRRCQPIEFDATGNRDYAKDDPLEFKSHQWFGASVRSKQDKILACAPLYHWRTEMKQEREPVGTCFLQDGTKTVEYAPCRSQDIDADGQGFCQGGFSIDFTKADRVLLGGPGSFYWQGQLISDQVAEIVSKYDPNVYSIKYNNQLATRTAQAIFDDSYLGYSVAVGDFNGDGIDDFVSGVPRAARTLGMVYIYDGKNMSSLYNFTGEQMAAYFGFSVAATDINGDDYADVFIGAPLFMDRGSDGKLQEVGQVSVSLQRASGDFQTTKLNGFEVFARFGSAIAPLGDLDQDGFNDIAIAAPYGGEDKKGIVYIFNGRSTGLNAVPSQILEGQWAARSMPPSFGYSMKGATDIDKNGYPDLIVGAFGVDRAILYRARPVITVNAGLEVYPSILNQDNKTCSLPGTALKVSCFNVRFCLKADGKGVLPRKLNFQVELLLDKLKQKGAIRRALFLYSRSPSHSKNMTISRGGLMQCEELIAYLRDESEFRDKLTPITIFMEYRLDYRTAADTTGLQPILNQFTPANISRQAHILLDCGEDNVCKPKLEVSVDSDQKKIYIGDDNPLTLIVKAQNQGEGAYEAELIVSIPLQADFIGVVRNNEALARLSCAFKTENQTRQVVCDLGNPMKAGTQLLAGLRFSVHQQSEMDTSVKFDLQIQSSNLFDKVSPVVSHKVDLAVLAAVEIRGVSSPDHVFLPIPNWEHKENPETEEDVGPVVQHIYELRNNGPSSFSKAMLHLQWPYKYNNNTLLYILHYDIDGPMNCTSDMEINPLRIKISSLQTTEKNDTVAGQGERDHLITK
human integrin αvβ5, sequence (P06756 891-1048 partner limits assumed): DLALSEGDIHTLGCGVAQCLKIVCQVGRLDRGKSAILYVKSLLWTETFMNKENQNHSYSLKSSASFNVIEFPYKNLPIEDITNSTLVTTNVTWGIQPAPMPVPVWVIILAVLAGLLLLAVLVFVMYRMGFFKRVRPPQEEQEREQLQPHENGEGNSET
human integrin αvβ5, sequence (P18084 24-799): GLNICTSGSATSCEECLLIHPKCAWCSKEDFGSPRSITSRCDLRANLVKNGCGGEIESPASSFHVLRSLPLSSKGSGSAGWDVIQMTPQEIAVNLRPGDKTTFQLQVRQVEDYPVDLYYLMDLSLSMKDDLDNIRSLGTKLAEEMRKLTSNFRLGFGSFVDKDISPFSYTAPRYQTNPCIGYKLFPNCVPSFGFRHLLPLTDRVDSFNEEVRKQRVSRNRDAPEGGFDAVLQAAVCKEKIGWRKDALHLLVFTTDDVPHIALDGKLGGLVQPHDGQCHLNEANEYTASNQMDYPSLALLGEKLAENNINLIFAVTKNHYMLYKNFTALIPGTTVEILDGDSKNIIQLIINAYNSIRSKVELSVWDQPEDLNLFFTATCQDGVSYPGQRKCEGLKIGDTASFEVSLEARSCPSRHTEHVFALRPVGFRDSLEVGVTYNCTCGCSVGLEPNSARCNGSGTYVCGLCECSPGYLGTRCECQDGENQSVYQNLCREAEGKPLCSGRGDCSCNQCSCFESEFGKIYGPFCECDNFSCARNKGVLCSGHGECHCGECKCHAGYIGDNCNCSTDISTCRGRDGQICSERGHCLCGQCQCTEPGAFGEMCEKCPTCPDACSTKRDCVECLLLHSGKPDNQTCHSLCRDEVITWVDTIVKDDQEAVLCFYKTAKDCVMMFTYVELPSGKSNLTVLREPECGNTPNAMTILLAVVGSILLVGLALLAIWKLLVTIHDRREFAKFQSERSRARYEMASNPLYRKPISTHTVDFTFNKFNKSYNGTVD
Protocol: A commercially available CM5 sensor chip (a carboxymethyl dextran introduction type, manufactured by GE Healthcare) was set in a surface plasmon resonance apparatus (product name: Biacore 3000, manufactured by GE Healthcare), the sensor was stabilized at a flow rate of 10 μL/min of a 4-(2-hydroxyethyl)-1-piperazineethanesulfonic acid (HEPES) buffer solution (20 mM HEPES-HCl, 150 mM NaCl, pH 7.4) for surface plasmon resonance (SPR), and 70 μL of a mixed aqueous solution of 0.2 M 1-(3-dimethylaminopropyl)-3-ethylcarbodiimide (EDC) and 0.04 M N-hydroxysuccinimide (NHS) was added thereto. Then, 300 μL of the sample solution of each of the above cyclic peptides diluted to 0.2 g/L with the HEPES buffer solution was supplied to the sensor chip, blocking treatment was subsequently carried out with an ethanolamine solution, and washing was carried out with a sodium hydroxide aqueous solution, whereby immobilization was carried out. However, only for the cyclic peptide 22, in which the number of lysine residues having an amino group as the immobilizing functional group was 1, the sample solution to be supplied to the sensor chip was set to 5,000 μL instead of 300 μL. Similarly; 70 μL of the mixed aqueous solution of 0.2 M EDC and 0.04 M NHS was added to another flow channel of the same sensor chip without immobilizing the sample, and then blocking treatment and washing treatment were carried out. Hereinafter, the obtained immobilization-treated sensor chip is referred to as an “immobilization-treated sensor chip A”.
After adding human integrin αvβ5 for 10 minutes at 25° C., which was diluted to 30 nM using a HEPES buffer solution to which magnesium chloride was added to 5 mM, in each flow channel of the immobilization-treated sensor chip A prepared in (1) above, the same HEPES buffer solution (containing 5 mM magnesium chloride) was allowed to flow as a running buffer for 30 minutes, and measurement was carried out with Biacore 3000.
Then, a regeneration treatment of removing human integrin αvβ5 was carried out by allowing a 0.5 M EDTA aqueous solution to flow through each flow channel for 10 minutes. Further, the above-described measurement process consisting of adding integrin for 10 minutes, allowing a running buffer to flow for 30 minutes, carrying out measurement with Biacore 3000, and carrying out regeneration treatment with 0.5 M EDTA aqueous solution was carried out in the same manner for 100 nM human integrin αvβ5, 300 nM human integrin αvβ5, and 1,000 nM human integrin αvβ5. Dissociation constant between the cyclic peptide and human integrin αvβ5 was calculated from the difference between the value measured by Biacore 3000 in the flow channel immobilized with the cyclic peptide and the value measured by Biacore 3000 in the flow channel unimmobilized with the cyclic peptide, in a case where each concentration of human integrin αvβ5 was allowed to flow; and the integrin binding property was evaluated according to the following evaluation standards. It is preferable that the evaluation result satisfies the evaluation standard A, B, or C.

[2] = Evaluation of molecule stability (alkali treatment, LC/MS residual rate); format: physicochemical; conditions: 500 μM peptide plus equivalent of 1 M sodium hydroxide, 15° C., 20 minutes, LC/MS peak area
Protocol: The molecule stability of the cyclic peptide was evaluated by analyzing the alkali-treated cyclic peptide aqueous solution by liquid chromatography mass spectroscopy (LC/MS).
The alkali treatment was carried out by the following method. A 500 μM cyclic peptide aqueous solution was prepared, an equivalent of 1 M sodium hydroxide aqueous solution was added to this aqueous solution, and the resultant mixture was incubated at 15° C. for 20 minutes to obtain an alkali-treated cyclic peptide aqueous solution. The cyclic peptide residual rate was calculated by setting the total area of all peaks of the cyclic peptide before alkali treatment in LC/MS to 100% and determining the proportion of the total area of all peaks in LC/MS of the alkali-treated cyclic peptide aqueous solution, and the molecule stability was evaluated according to the following evaluation standards. It is preferable that the evaluation result satisfies the evaluation standard A, B, or C.
The conditions of the LC/MS used for the evaluation of molecule stability were set as follows. • LC apparatus: Prominence series (pump, column oven, autosampler, detector) (manufactured by Shimadzu Corporation) • MS detector: LC/MS2010EV (manufactured by Shimadzu Corporation) • Column: Cadenza CD-C18, inner diameter 2.0 mm×length 250 mm, particle size: 3 μm (manufactured by Imtakt Corporation) • Eluent A: a solution (pH 3) containing 10 mM ammonium formate as a solute, where the solvent is 100% water. • Eluent B: a solution (pH 3) containing 10 mM ammonium formate as a solute, where the solvent is acetonitrile/water=90/10. • Flow rate: 0.2 mL/min • Injection volume: 4 μL • Gradient: 0% to 30%: Eluent B (0 to 30 minutes), 100%: Eluent B (30 to 40 minutes), 0%: Eluent B (40 to 60 minutes)(B indicates the eluent B) • Column temperature: 45° C. • Ionization method: electrospray ionization (ESI) positive, ESI negative

Structure (SMILES) | Kd [1] | Molecule stability (cyclic peptide residual rate) [2]
CC[C@H](C)[C@@H]1NC(=O)CSCC[C@@H](C(=O)N[C@@H](CCCCN)C(=O)N[C@@H](CCCCN)C(=O)N[C@@H](CCCCN)C(=O)O)NC(=O)[C@H](Cc2ccccc2)NC(=O)[C@@H]2CCSCC(=O)NCC[C@H](NC1=O)C(=O)N[C@@H](CCCNC(=N)N)C(=O)NCC(=O)N[C@@H](CC(=O)O)C(=O)N2 [Cyclic peptide 2] ({CH2CO}-I[Dab]RGD[hCys]F[hCys]KKK-OH; linker 2-6 via X2; thioether N-8) | 100 to 200 nM | A (The residual rate of the cyclic peptide is 70% or more.)
CC[C@H](C)[C@@H]1NC(=O)CSC[C@@H](C(=O)N[C@@H](CCCCN)C(=O)N[C@@H](CCCCN)C(=O)N[C@@H](CCCCN)C(=O)O)NC(=O)[C@H](Cc2ccccc2)NC(=O)[C@@H]2CNC(=O)CSC[C@H](NC1=O)C(=O)N[C@@H](CCCNC(=N)N)C(=O)NCC(=O)N[C@@H](CC(=O)O)C(=O)N2 [Cyclic peptide 6] ({CH2CO}-ICRGD[Dap]FCKKK-OH; linker 2-6 via X1; thioether N-8) | 100 to 200 nM | B (The residual rate of the cyclic peptide is 50% or more and less than 70%.)
CC[C@H](C)[C@@H]1NC(=O)CSCC[C@@H](C(=O)N[C@@H](CCCCN)C(=O)N[C@@H](CCCCN)C(=O)N[C@@H](CCCCN)C(=O)O)NC(=O)[C@H](Cc2ccccc2)NC(=O)[C@@H]2CCCNC(=O)CSCC[C@H](NC1=O)C(=O)N[C@@H](CCCNC(=N)N)C(=O)NCC(=O)N[C@@H](CC(=O)O)C(=O)N2 [Cyclic peptide 9] ({CH2CO}-I[hCys]RGD[Orn]F[hCys]KKK-OH; linker 2-6 via X1; thioether N-8) | 50 to 100 nM | A (The residual rate of the cyclic peptide is 70% or more.)
CC[C@H](C)[C@@H]1NC(=O)CSC[C@@H](C(=O)N[C@@H](CCCCN)C(=O)N[C@@H](CCCCN)C(=O)N[C@@H](CCCCN)C(=O)O)NC(=O)[C@H](Cc2ccccc2)NC(=O)[C@@H]2CCCNC(=O)CSC[C@H](NC1=O)C(=O)N[C@@H](CCCNC(=N)N)C(=O)NCC(=O)N[C@@H](CC(=O)O)C(=O)N2 [Cyclic peptide 10] ({CH2CO}-ICRGD[Orn]FCKKK-OH; linker 2-6 via X1; thioether N-8) | 50 to 100 nM | B (The residual rate of the cyclic peptide is 50% or more and less than 70%.)
N=C(N)NCCC[C@@H]1NC(=O)[C@@H]2CNC(=O)CSCC[C@H](NC(=O)[C@H](CC(=O)O)NC(=O)CNC1=O)C(=O)N[C@@H](Cc1ccccc1)C(=O)N[C@H](C(=O)N[C@@H](CCCCN)C(=O)N[C@@H](CCCCN)C(=O)N[C@@H](CCCCN)C(=O)O)CCSCC(=O)N[C@@H](CCCCN)C(=O)N2 [Cyclic peptide 21] ({CH2CO}-K[Dap]RGD[hCys]F[hCys]KKK-OH; linker 2-6 via X2; thioether N-8; N-terminus and C-terminus assumed) |  | A (The residual rate of the cyclic peptide is 70% or more.)
N=C(N)NCCC[C@@H]1NC(=O)[C@@H]2CSSC[C@H](NC(=O)[C@H](CC(=O)O)NC(=O)CNC1=O)C(=O)N[C@@H](Cc1ccccc1)C(=O)N[C@H](C(=O)N[C@@H](CCCCN)C(=O)N[C@@H](CCCCN)C(=O)N[C@@H](CCCCN)C(=O)O)CSCC(=O)N[C@@H](CCCCN)C(=O)N2 [Cyclic peptide 48, reference compound] ({CH2CO}-KCRGDCFCKKK-OH; disulfide 2-6; thioether N-8; N-terminus and C-terminus assumed) |  | D (The residual rate of the cyclic peptide is less than 30%.)

Second part, led by results:

Kd [1] | Structure (SMILES) | Molecule stability (cyclic peptide residual rate) [2]
50 to 100 nM | CC[C@H](C)[C@@H]1NC(=O)CSCC[C@@H](C(=O)N[C@@H](CCCCN)C(=O)N[C@@H](CCCCN)C(=O)N[C@@H](CCCCN)C(=O)O)NC(=O)[C@H](Cc2ccccc2)NC(=O)[C@@H]2CCSCC(=O)NC[C@H](NC1=O)C(=O)N[C@@H](CCCNC(=N)N)C(=O)NCC(=O)N[C@@H](CC(=O)O)C(=O)N2 [Cyclic peptide 1] ({CH2CO}-I[Dap]RGD[hCys]F[hCys]KKK-OH; linker 2-6 via X2; thioether N-8) | A (The residual rate of the cyclic peptide is 70% or more.)
< 50 nM | CC[C@H](C)[C@@H]1NC(=O)CSCC[C@@H](C(=O)N[C@@H](CCCCN)C(=O)N[C@@H](CCCCN)C(=O)N[C@@H](CCCCN)C(=O)O)NC(=O)[C@H](Cc2ccccc2)NC(=O)[C@@H]2CCSCC(=O)NCCC[C@H](NC1=O)C(=O)N[C@@H](CCCNC(=N)N)C(=O)NCC(=O)N[C@@H](CC(=O)O)C(=O)N2 [Cyclic peptide 3] ({CH2CO}-I[Orn]RGD[hCys]F[hCys]KKK-OH; linker 2-6 via X2; thioether N-8) | A (The residual rate of the cyclic peptide is 70% or more.)
50 to 100 nM | CC[C@H](C)[C@@H]1NC(=O)CSCC[C@@H](C(=O)N[C@@H](CCCCN)C(=O)N[C@@H](CCCCN)C(=O)N[C@@H](CCCCN)C(=O)O)NC(=O)[C@H](Cc2ccccc2)NC(=O)[C@@H]2CCSCC(=O)NCCCC[C@H](NC1=O)C(=O)N[C@@H](CCCNC(=N)N)C(=O)NCC(=O)N[C@@H](CC(=O)O)C(=O)N2 [Cyclic peptide 4] ({CH2CO}-IKRGD[hCys]F[hCys]KKK-OH; linker 2-6 via X2; thioether N-8) | A (The residual rate of the cyclic peptide is 70% or more.)
50 to 100 nM | CC[C@H](C)[C@@H]1NC(=O)CSCC[C@@H](C(=O)N[C@@H](CCCCN)C(=O)N[C@@H](CCCCN)C(=O)N[C@@H](CCCCN)C(=O)O)NC(=O)[C@H](Cc2ccccc2)NC(=O)[C@@H]2CNC(=O)CSCC[C@H](NC1=O)C(=O)N[C@@H](CCCNC(=N)N)C(=O)NCC(=O)N[C@@H](CC(=O)O)C(=O)N2 [Cyclic peptide 5] ({CH2CO}-I[hCys]RGD[Dap]F[hCys]KKK-OH; linker 2-6 via X1; thioether N-8) | A (The residual rate of the cyclic peptide is 70% or more.)
50 to 100 nM | CC[C@H](C)[C@@H]1NC(=O)CSCC[C@@H](C(=O)N[C@@H](CCCCN)C(=O)N[C@@H](CCCCN)C(=O)N[C@@H](CCCCN)C(=O)O)NC(=O)[C@H](Cc2ccccc2)NC(=O)[C@@H]2CCNC(=O)CSCC[C@H](NC1=O)C(=O)N[C@@H](CCCNC(=N)N)C(=O)NCC(=O)N[C@@H](CC(=O)O)C(=O)N2 [Cyclic peptide 7] ({CH2CO}-I[hCys]RGD[Dab]F[hCys]KKK-OH; linker 2-6 via X1; thioether N-8) | A (The residual rate of the cyclic peptide is 70% or more.)
< 50 nM | CC[C@H](C)[C@@H]1NC(=O)CSC[C@@H](C(=O)N[C@@H](CCCCN)C(=O)N[C@@H](CCCCN)C(=O)N[C@@H](CCCCN)C(=O)O)NC(=O)[C@H](Cc2ccccc2)NC(=O)[C@@H]2CCNC(=O)CSC[C@H](NC1=O)C(=O)N[C@@H](CCCNC(=N)N)C(=O)NCC(=O)N[C@@H](CC(=O)O)C(=O)N2 [Cyclic peptide 8] ({CH2CO}-ICRGD[Dab]FCKKK-OH; linker 2-6 via X1; thioether N-8) | B (The residual rate of the cyclic peptide is 50% or more and less than 70%.)
